The values below come from ChEMBL document CHEMBL4033770, “Importance of a 4-Alkyl Substituent for Activity in the Englerin Series” (2017).

Holding throughout (assay type): functional
One experiment relates to A498. Kind of experiment: Growth inhibition of human A498 cells incubated for 48 hrs by SRB assay. As to conditions: A498, 48 h.
A further experiment has as its system ACHN. Kind of experiment: Growth inhibition of human ACHN cells incubated for 48 hrs by SRB assay.
The next experiment relates to UO-31. Kind of experiment: Growth inhibition of human UO31 cells incubated for 48 hrs by SRB assay. Particulars: UO-31, 48 h.
The next experiment concerns Hs-578T. Kind of experiment: Growth inhibition of human Hs 578T cells incubated for 48 hrs by SRB assay.

For the molecule `CC(C)[C@]12C[C@@H](OC(=O)CO)[C@](C)(O1)[C@@H]1CCC[C@H]1[C@@H]2OC(=O)/C=C/c1ccccc1`, the 50% growth inhibitory concentration (GI50) in the experiment on A498 was 0.123 µM; in the experiment with ACHN, 0.162 µM; in the experiment on UO-31, 0.182 µM; with Hs-578T, 0.031 µM.

Consider `CC(C)[C@@H]1CC[C@@H]2[C@@H]1[C@H](OC(=O)/C=C/c1ccccc1)[C@@]1(C(C)C)C[C@@H](OC(=O)CO)[C@]2(C)O1`, for which the GI50 in the experiment with A498 is 0.0081 µM; in the experiment with ACHN it was 0.0083 µM; in the experiment with UO-31, 0.011 µM; in the experiment with Hs-578T it was 0.0032 µM.

Regarding `CC[C@@H]1CC[C@@H]2[C@@H]1[C@H](OC(=O)/C=C/c1ccccc1)[C@@]1(C(C)C)C[C@@H](OC(=O)CO)[C@]2(C)O1`, the concentration for 50% growth inhibition (GI50) came to 0.038 µM in the experiment on A498, 0.013 µM in the experiment on ACHN, 0.019 µM in the experiment with UO-31 and 0.0041 µM in the experiment with Hs-578T.
